The text below walks through data of US10981932B2, “Macrocyclic indole derivatives” (Bayer Aktiengesellschaft, priority 2016, dated 2021).

Data set [1] relates to SUDHL10. As to the kind of experiment: Induction of cytotoxicity (CellTiter-Glo, 5 h), SUDHL10. In general terms: Cellular ATP, detected with luciferase, serves as a proxy for viable cell number.
For data set [2], the system named is SUDHL5. As to the kind of experiment: Induction of cytotoxicity (CellTiter-Glo, 5 h), SUDHL5.
In data set [3] the test system is SUDHL10. As to the kind of experiment: Induction of caspase-3/7 activity (Caspase-Glo 3/7), SUDHL10. It is filed as cell-based. As to conditions: caspase-3/7 induction, SUDHL10 cells, 3 h treatment, median. In a few lines: (§1)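 DLBCL cells treated with compounds for 3 h at 37 °C, then caspase-3/7 activity read by Caspase-Glo 3/7 luminescence. Medium-only background subtracted; EC50 fitted with C0 fixed at 1 and top set to the reference compound's maximal induction.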

For data set [4], the target named is MCL-1 (Homo sapiens, UniProt Q07820). As to the kind of experiment: Protein-protein interaction assay MCL-1/Noxa BH3 peptide (MCL-1 assay), TR-FRET. It is filed as binding. As to conditions: MBP-MCL-1 / Noxa BH3-derived peptide, median. In a few lines:
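TR-FRET, 665/622 nm emission ratio (excitation 330–350 nm), measured MCL-1/Noxa complex formation. 1 nM MBP-MCL-1, 50 mM Tris/HCl pH 7, 0.1% BGG, 2 mM DTT. Incubation 1 h at 22 °C, then overnight at 4 °C. IC50 by 4-parameter regression, normalized to DMSO (0%) and no-MCL-1 (100%) controls.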
(In TR-FRET formats the signal depends on donor and acceptor labels being close together.)

Data set [5] deals with OPM2. Description: Anti-proliferative effect (CellTiter-Glo, 72 h), OPM2. Format: cell-based. As to conditions: OPM2 cells, median, read-out: IC50 antiproliferation assay OPM2 [M] (median). The method, boiled down:
(§2)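 Cells were treated with compounds for 72 h at 37 °C in a humidified incubator, and viability was measured by CellTiter-Glo luminescence. A parallel day 0 plate, read the same way, gave the time zero baseline.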

Data set [6] has as its system SUDHL10. As to the kind of experiment: Anti-proliferative effect (CellTiter-Glo, 72 h), SUDHL10. Format: cell-based. To be noted: SUDHL10 cells, antiproliferation, 72 h incubation, median, read-out: Antiproli SUDHL10 [M] (median). In a few lines: as §2
In data set [7] the test system is SUDHL5. Description: Anti-proliferative effect (CellTiter-Glo, 72 h), SUDHL5. Format: cell-based. As to conditions: SUDHL5 cells, antiproliferation, 72 h incubation, median, read-out: Antiproli SUDHL5 [M] (median). In a few lines: as §2
The test system of data set [8] is SUDHL5. As to the kind of experiment: Induction of caspase-3/7 activity (Caspase-Glo 3/7), SUDHL5. It is filed as cell-based. As to conditions: caspase-3/7 induction, SUDHL5 cells, 3 h treatment, median. In a few lines:
as §1

[9] abbreviates: Homo sapiens, SU-DHL10, 5 h, read-out: Cytotox SUDHL10 [M] (median), SUDHL10 cells, cytotoxicity induction, CellTiter-Glo, 5 h incubation, median.
Where [10] appears, read: Homo sapiens, SU-DHL-5, 5 h, read-out: Cytotox SUDHL5 [M] (median), SUDHL5 cells, cytotoxicity induction, CellTiter-Glo, 5 h incubation, median.
Where [11] appears, read: read-out: Cytotox SUDHL10 [M] (median), SUDHL10 cells, cytotoxicity induction, CellTiter-Glo, 5 h incubation, median.
Setting [12] is: read-out: Cytotox SUDHL5 [M] (median), SUDHL5 cells, cytotoxicity induction, CellTiter-Glo, 5 h incubation, median.

Where two headings read alike, the source gives them in different places. Where only a bound is given, the exact number is not on record here.

MCL-1, sequence (Q07820 whole entry): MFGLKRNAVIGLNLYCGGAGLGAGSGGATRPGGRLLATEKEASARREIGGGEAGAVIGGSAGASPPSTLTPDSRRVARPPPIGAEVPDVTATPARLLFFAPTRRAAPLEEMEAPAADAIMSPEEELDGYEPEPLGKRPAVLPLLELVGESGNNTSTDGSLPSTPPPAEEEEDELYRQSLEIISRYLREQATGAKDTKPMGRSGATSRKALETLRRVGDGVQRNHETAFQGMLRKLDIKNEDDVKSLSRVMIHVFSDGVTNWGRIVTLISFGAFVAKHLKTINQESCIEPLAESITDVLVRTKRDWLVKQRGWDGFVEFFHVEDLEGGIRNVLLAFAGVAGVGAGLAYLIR

As for `Cc1nn(C)c2c1-c1cccc3c(CCCOc4cccc5ccccc45)c(C(=O)O)n(c13)CC=CCN2Cc1ccccc1` (racemic) [Example 001, (rac)-(E/Z)-8-benzyl-9,11-dimethyl-1-[3-(1-naphthyloxy)propyl]-4,7,8,9-tetrahydropyrazolo[4′,3′:4,5][1,6]diazecino[3,2,1-hi]indole-2-carboxylic Acid], the IC50 in data set [1] (setting [9]) is > 3.3e-05 M; in data set [2] (setting [10]) it was 2.61e-05 M; in data set [4] it was 1.01 µM; in data set [5] (Homo sapiens, OPM-2, 72 h) it was > 3.3e-05 M; in data set [6] (Homo sapiens, SU-DHL10, 72 h), 9.57e-06 M; in data set [7] (Homo sapiens, SU-DHL-5, 72 h), > 3.3e-05 M. Also, the EC50 (as a rule, the concentration needed to bring the measured effect to its halfway point) in data set [3] (Homo sapiens, SU-DHL10, 3 h) was 29.1 µM; in data set [8] (Homo sapiens, SU-DHL-5, 3 h), > 33 µM.
On to `Cc1nn(C)c2c1-c1cccc3c(CCCOc4cccc5ccccc45)c(C(=O)O)n(c13)CCCN(C)C2` (racemic) [Example 1-30, (rac)-7,9,11-trimethyl-1-[3-(naphthalen-1-yloxy)propyl]-4,5,6,7,8,9-hexahydropyrazolo[3′,4′:7,8][1,5]diazecino[9,10,1-hi]indole-2-carboxylic Acid], for which the IC50 in data set [1] (setting [9]) is > 3.3e-05 M; in data set [2] (setting [10]) it was > 3.3e-05 M; in data set [4], 0.00652 µM; in data set [5] (Homo sapiens, OPM-2, 72 h) it was 2.28e-05 M; in data set [6] (Homo sapiens, SU-DHL10, 72 h) it was 1.36e-05 M; in data set [7] (Homo sapiens, SU-DHL-5, 72 h), 1.04e-05 M. Moreover, the EC50 stood at 30.1 µM in data set [3] (Homo sapiens, SU-DHL10, 3 h) and 15.6 µM in data set [8] (Homo sapiens, SU-DHL-5, 3 h).
Turning to `Cn1nc(COc2ccccc2)c2c1COCC=CCn1c(C(=O)O)c(CCCOc3cccc4ccccc34)c3cccc-2c31` (racemic) [Example 1-76, (rac)-(E/Z)-1-methyl-7-[3-(naphthalen-1-yloxy)propyl]-3-(phenoxymethyl)-1,10,13,15-tetrahydropyrazolo[4′,3′:9,10][1,6]oxazacycloundecino[8,7,6-hi]indole-8-carboxylic Acid], the IC50 is > 3.3e-05 M in data set [1] (setting [9]); > 3.3e-05 M in data set [2] (setting [10]); > 3.3e-05 M in data set [5] (Homo sapiens, OPM-2, 72 h); 1.13e-05 M in data set [6] (Homo sapiens, SU-DHL10, 72 h); 2.1e-05 M in data set [7] (Homo sapiens, SU-DHL-5, 72 h). Also, the EC50 in data set [3] (Homo sapiens, SU-DHL10, 3 h) was > 33 µM; in data set [8] (Homo sapiens, SU-DHL-5, 3 h), > 33 µM.
On to `CN1CCCn2c(C(=O)O)c(CCCOc3cccc4ccccc34)c3cccc(c32)-c2c(COc3ccccc3)nn(C)c2C1` (racemic) [Example 1-81, (rac)-7,9-dimethyl-1-[3-(naphthalen-1-yloxy)propyl]-1-(phenoxymethyl)-4,5,6,7,8,9-hexahydropyrazolo[3′,4′:7,8][1,5]diazecino[9,10,1-hi]indole-2-carboxylic Acid], for which the IC50 in data set [1] (setting [9]) is > 3.3e-05 M; in data set [2] (setting [10]), > 3.3e-05 M; in data set [4], 0.0994 µM; in data set [5] (Homo sapiens, OPM-2, 72 h), > 3.3e-05 M; in data set [6] (Homo sapiens, SU-DHL10, 72 h), 2.78e-05 M; in data set [7] (Homo sapiens, SU-DHL-5, 72 h) it was > 3.3e-05 M. The EC50 is > 33 µM in data set [3] (Homo sapiens, SU-DHL10, 3 h) and > 33 µM in data set [8] (Homo sapiens, SU-DHL-5, 3 h).
On to `Cc1cc(OCCCc2c(C(=O)O)n3c4c(cccc24)-c2c(COc4ccccc4)nn(C)c2CN(C)CCC3)cc(C)c1Cl` (racemic) [Example 1-84, (rac)-1-[3-(4-chloro-3,5-dimethylphenoxy)propyl]-7,9-dimethyl-11-(phenoxymethyl)-4,5,6,7,8,9-hexahydropyrazolo[3′,4′:7,8][1,5]diazecino[9,10,1-hi]indole-2-carboxylic Acid], for which the IC50 in data set [1] (setting [9]) was > 3.3e-05 M; in data set [2] (setting [10]), > 3.3e-05 M; in data set [4] it was 0.11 µM; in data set [5] (Homo sapiens, OPM-2, 72 h), > 3.3e-05 M; in data set [6] (Homo sapiens, SU-DHL10, 72 h) it was 8.37e-06 M; in data set [7] (Homo sapiens, SU-DHL-5, 72 h), 1.18e-05 M. Further, the EC50 in data set [3] (Homo sapiens, SU-DHL10, 3 h) is > 33 µM; in data set [8] (Homo sapiens, SU-DHL-5, 3 h) it was > 33 µM.
`Cc1nn(C)c2c1-c1cccc3c(CCCOc4cccc5ccccc45)c(C(=O)O)n(c13)CCCN(c1ccccc1)C2` (racemic) [Example 1-97, (rac)-9,11-Dimethyl-1-[3-(1-naphthyloxy)propyl]-7-phenyl-4,5,6,7,8,9-hexahydropyrazolo[3′4′:78][1,5]diazecino[9,10,1-hi]indole-2-carboxylic Acid]: the IC50 is > 3e-05 M in data set [1] (setting [9]); > 3e-05 M in data set [2] (setting [10]); 0.175 µM in data set [4]; 1.43e-05 M in data set [5] (Homo sapiens, OPM-2, 72 h); 7.07e-06 M in data set [6] (Homo sapiens, SU-DHL10, 72 h); 1.18e-05 M in data set [7] (Homo sapiens, SU-DHL-5, 72 h). The EC50 in data set [3] (Homo sapiens, SU-DHL10, 3 h) was > 30 µM; in data set [8] (Homo sapiens, SU-DHL-5, 3 h), > 30 µM.
As for `Cn1nc(COc2ccccc2)c2c1COCC=CCn1c(C(=O)O)c(CCCOc3cccc4ccccc34)c3cccc-2c31` (single isomer, unassigned) [Example 1-77, (E/Z)-1-methyl-7-[3-(naphthalen-1-yloxy)propyl]-3-(phenoxymethyl)-1,10,13,15-tetrahydropyrazolo[4′,3′:9,10][1,6]oxazacycloundecino[8,7,6-hi]indole-8-carboxylic Acid], the IC50 in data set [1] (setting [9]) is > 3.3e-05 M; in data set [2] (setting [10]), > 3.3e-05 M; in data set [4], 0.188 µM; in data set [5] (Homo sapiens, OPM-2, 72 h), > 3.3e-05 M; in data set [6] (Homo sapiens, SU-DHL10, 72 h), 1.52e-05 M; in data set [7] (Homo sapiens, SU-DHL-5, 72 h) it was 2.96e-05 M. For the same molecule, the EC50 was > 33 µM in data set [3] (Homo sapiens, SU-DHL10, 3 h) and > 33 µM in data set [8] (Homo sapiens, SU-DHL-5, 3 h).
As to `Cn1nc(COc2ccccc2)c2c1COCC=CCn1c(C(=O)O)c(CCCOc3cccc4ccccc34)c3cccc-2c31` (single isomer, unassigned) [Example 1-78, (E/Z)-1-methyl-7-[3-(naphthalen-1-yloxy)propyl]-3-(phenoxymethyl)-1,10,13,15-tetrahydropyrazolo[4′,3′:9,10][1,6]oxazacycloundecino[8,7,6-hi]indole-8-carboxylic Acid], the IC50 in data set [1] (setting [11]) is > 3.3e-05 M; in data set [2] (setting [12]), > 3.3e-05 M; in data set [4] it was 0.905 µM; in data set [5], 3.06e-05 M; in data set [6] it was 1.08e-05 M; in data set [7] it was 1.79e-05 M. For the same molecule, the EC50 in data set [3] and in data set [8] was > 33 µM in each case.
In the case of `CN1CCCn2c(C(=O)O)c(CCCOc3cccc4ccccc34)c3cccc(c32)-c2c(COc3ccccc3)nn(C)c2C1` (single isomer, unassigned) [Example 1-82, 7,9-dimethyl-1-[3-(naphthalen-1-yloxy)propyl]-11-(phenoxymethyl)-4,5,6,7,8,9-hexahydropyrazolo[3′,4′:7,8][1,5]diazecino[9,10,1-hi]indole-2-carboxylic Acid], the IC50 in data set [1] (setting [9]) was > 3.3e-05 M; in data set [2] (setting [10]), > 3.3e-05 M; in data set [4], 0.113 µM; in data set [5] (Homo sapiens, OPM-2, 72 h) it was > 3.3e-05 M; in data set [6] (Homo sapiens, SU-DHL10, 72 h), 1.42e-05 M; in data set [7] (Homo sapiens, SU-DHL-5, 72 h) it was 2.77e-05 M. Also, the EC50 was > 33 µM in data set [3] (Homo sapiens, SU-DHL10, 3 h) and > 33 µM in data set [8] (Homo sapiens, SU-DHL-5, 3 h).
In the case of `CN1CCCn2c(C(=O)O)c(CCCOc3cccc4ccccc34)c3cccc(c32)-c2c(COc3ccccc3)nn(C)c2C1` (single isomer, unassigned) [Example 1-83, 7,9-dimethyl-1-[3-(naphthalen-1-yloxy)propyl]-11-(phenoxymethyl)-4,5,6,7,8,9-hexahydropyrazolo[3′,4′:7,8][1,5]diazecino[9,10,1-hi]indole-2-carboxylic Acid], the IC50 was > 3.3e-05 M in data set [1] (setting [11]); > 3.3e-05 M in data set [2] (setting [12]); 0.24 µM in data set [4]; > 3.3e-05 M in data set [5]; 1.12e-05 M in data set [6]; 2.06e-05 M in data set [7]. Moreover, the EC50 in data set [3] and in data set [8] was > 33 µM in each case.
